Experimental data reported in patent US11318143B2, “Treatment of alcohol use disorder” (priority 2017, dated 2022).

What was measured:
[1] = test system: subjects with alcohol use disorder; settings: treatment of AUD, literature, cited from earlier work; for effect size (Cohen's D): meta-analyses
[2] = test system: dopamine levels in the rat nucleus accumbens; test: in vivo microdialysis in the nucleus accumbens in awake freely moving rats; parameters: species or system Wistar rats; settings: for extracellular dopamine levels in the dialysate (percent of baseline): FIG. 1, varenicline 1.5 mg/kg, bupropion 2.5 mg/kg i.p., sampling 140 minutes, preliminary data; for extracellular DA levels / DA release in the rat nAc: FIGS. 1 to 5, overall statement
Description: Shown are dopamine levels measured in the dialysate expressed as percent of baseline. Drugs (mg/kg) or control solution (NaCl) was injected i.p. directly after time-point 0.
FIGS. 2 and 3 show results from in vivo microdialysis in the nucleus accumbens in awake freely moving male Wistar rats after injection of varenicline (1.5 mg/kg, i.p.) or bupropion (2.5, 5 and 10 mg/kg i.p.) Dopamine levels in the dialysate are expressed as percent of baseline. Drugs or control solution (NaCl) was injected directly after time-point 0.
FIG. 5 illustrates the Area Under the Curve (AUC) 0-140 minutes (Bup 5 vs Var+Bup 5: p<0.001.
A). Experiments that examine the effects of varenicline and bupropion (separately and in combination) on dopamine release in the nucleus accumbens (nAc; a central part of the brain reward system) using in vivo microdialysis in awake, freely moving rats have commenced. […] Rats were surgically implanted with a microdialysis probe into nAc, which two days later was coupled to a perfusion pump allowing liquid sampling from the extracellular space. After a stable baseline was obtained varenicline (1.5 mg/kg, […].), bupropion (2.5 mg/kg, i.p.) or control solution was administered and sampling continued for 140 minutes. […] Further, as long as bupropion produces an effect, this effect adds to the varenicline effect when the two drugs are given in combination.

relapses to drinking = settings: chronic i.m. administration (Wiesbeck et al., 2001); cited from earlier work
[3] = test system: nicotinic acetylcholine receptors (nAChRs); settings: systemic administration or site-directed injections in the VTA (Blomqvist et al., 1996; Ericson et al., 1998); cited from earlier work
[4] = test system: alcohol dependent individuals; settings: cited from earlier work
[5] = test system: ethanol-induced stimulation and euphoria; settings: McKee et al. (2009); cited from earlier work

Question: Which results are given for `CC(=O)NCCCS(=O)(=O)O` [Acamprosate]?
Answer: Numbers-needed-to-treat (NNT) [1]: 7.5; effect size (Cohen's D) [1]: 0.32

Question: For `O=C1CC[C@@]2(O)[C@H]3Cc4ccc(O)c5c4[C@@]2(CCN3CC2CC2)[C@H]1O5` [Naltrexone], which “Numbers-needed-to-treat (NNT)” value [1] is on record?
Answer: 8.6

Question: What about the “effect size (Cohen's D)” value [1] of the same compound?
Answer: 0.2

Question: Which results are given for `CC(NC(C)(C)C)C(=O)c1cccc(Cl)c1` (stereo not shown) [bupropion]?
Answer: extracellular dopamine levels in the dialysate (percent of baseline) [2]: raise extracellular dopamine levels; extracellular DA levels / DA release in the rat nAc [2]: increase extracellular DA levels

Question: Which “relapses to drinking as compared to placebo” value (relapses to drinking) does the source give for `OCCN1CCN(CC/C=C2\c3ccccc3Sc3ccc(C(F)(F)F)cc32)CC1` [fluphentixole] here?
Answer: worsened the condition

Question: For `CNC1(C)C2CCC(C2)C1(C)C` (stereo not shown) [mecamylamine], which “ethanol intake and preference” value [3] is on record?
Answer: reduces

Question: Which “extracellular dopamine levels in the dialysate (percent of baseline)” value [2] does the source give for `c1cnc2cc3c(cc2n1)[C@@H]1CNC[C@H]3C1` [varenicline] here?
Answer: raise extracellular dopamine levels

Question: And the “extracellular DA levels / DA release in the rat nAc” value [2]?
Answer: increase extracellular DA levels

Question: And the effect ([4]; females (O'Malley et al., 2017))?
Answer: no effect

Question: And the effect size ([4]; male alcoholics (O'Malley et al., 2017))?
Answer: 0.45

Question: What about the “ethanol-induced stimulation and euphoria” value [5] of the same compound?
Answer: blocked
